Data taken from patent US6828315B1, “1-Amino triazoloc4,3-a! quinazoline-5-ones and/or -5-thiones inhibiting phosphodiesterase IV” (Warner-Lambert LLC, priority 1999, dated 2004).

Structure (SMILES) | melting point [°C]
COc1ccc(Cn2nc(N3CCCCCC3)n3c4ccc(Br)cc4c(=O)nc23)cc1OC [Compound 137, 1-(azepan-1-yl)-7-bromo-3-(3,4dimethoxybenzyl)-3H-[1,2,4]triazolo[4,3-a]quinazolin-5-one] | 174
O=C(O)Cc1ccc(Cn2nc(N3CCCCCC3)n3c4ccc(Br)cc4c(=O)nc23)cc1 [Compound 138, [4-(7-Bromo-5-oxo-1-perhydro-azepin-1-yl-5H-[1,2,4]triazolo[4,3-a]quinazolin-3-ylmethyl)-phenyl]-acetic acid] | 269
O=c1nc2n(Cc3cccnc3)nc(N3CCCCCC3)n2c2ccc(Br)cc12 [Compound 139, 1-(azepan-1-yl)-7-bromo-3-(pyridin-3-ylmethyl)-3H-[1,2,4]triazolo[4,3-a]quinazolin-5-one] | 192
O=c1nc2n(C/C=C/c3ccccc3)nc(N3CCCCCC3)n2c2ccc(Br)cc12 [Compound 140, 1-Azepan-1-yl-7-bromo-3-((E)-3-phenyl-allyl)-3H-[1,2,4]triazolo(4,3-a]quinazolin-5-one] | 198
O=c1nc2n(C/C=C/c3ccccc3)nc(N3CCCCC3)n2c2ccc(Br)cc12 [Compound 141, 7-Bromo-3-((E)-3-phenyl-allyl)-1-piperidin-1-yl-3H-[1,2,4]triazolo[4,3-a]quinazolin-5one] | 187
O=c1nc2n(Cc3ccc(F)cc3)nc(N3CCCC3)n2c2ccc(Br)cc12 [Compound 143, 7-bromo-3-(4-fluorobenzyl)-1-(pyrrolidin-1-yl)-3H-[1,2,4]triazolo[4,3-a]quinazolin-5-one] | 233
N#Cc1ccc(Cn2nc(N3CCCC3)n3c4ccc(Br)cc4c(=O)nc23)cc1 [Compound 144, 4-(7-bromo-5-oxo-1-(pyrrolidin-1-yl)-5H-[1,2,4]triazolo[4,3-a]-quinazolin-3-ylmethyl)-benzonitrile] | 222
COC(=O)c1ccc(Cn2nc(N3CCCC3)n3c4ccc(Br)cc4c(=O)nc23)cc1 [Compound 145, 4-(7-bromo-5-oxo-1-(pyrrolidin-1-yl)-5H-[1,2,4]triazolo[4,3-a]-quinazolin-3-ylmethyl)benzoic acid methyl ester] | 193
COc1ccc(Cn2nc(N3CCCC3)n3c4ccc(Br)cc4c(=O)nc23)cc1 [Compound 146, 7-Bromo-3-(4-methoxy-benzyl)-1-pyrrolidin-1-yl-3H-[1,2,4]triazolo[4,3-a]quinazolin-5-one] | 164
CC(=O)Oc1ccc(Cn2nc(N3CCCC3)n3c4ccc(Br)cc4c(=O)nc23)cc1 [Compound 147, Acetic acid 4-(7-bromo-5-oxo-1-pyrrolidin-1-yl-5H-[1,2,4]triazolo[4,3-a]quinazolin-3-ylmethyl)phenyl ester] | 199
CN(C)c1nn(Cc2ccc(O)cc2)c2nc(=O)c3cc(Br)ccc3n12 [Compound 148, 7-Bromo-1-dimethylamino-3-(4-hydroxy-benzyl)-3H-[1,2,4)triazolo[4,3-a]quinazolin-5-one] | 283
COc1cc(Cn2nc(N3CCCC3)n3c4ccc(Br)cc4c(=O)nc23)cc(OC)c1 [Compound 150, 7-bromo-3-(3,5-dimethoxy-benzyl)-1-(pyrrolidin-1-yl)-3H-[1,2,4]triazolo-[4,3-a]quinazolin-5-one] | 168
COc1cc(Cn2nc(N3CCCC3)n3c4ccc(Br)cc4c(=O)nc23)cc(OC)c1OC [Compound 151, 7-bromo-1-(pyrrolidin-1-yl)-3-(3,4,5-trimethoxybenzyl)-3H-[1,2,4]triazolo[4,3-a]quinazolin-5-one] | 199 to 201
CCCCn1nc(N2CCCC2)n2c3ccc(Br)cc3c(=O)nc12 [Compound 153, 7-bromo-3-(n-butyl)-1-(pyrrolidin-1-yl)-3H-[1,2,4]triazolo[4,3-a]-quinazolin-5-one] | 130
COC(=O)C(c1ccccc1)n1nc(N2CCCC2)n2c3ccc(Br)cc3c(=O)nc12 (stereo not drawn) [Compound 154, (7-Bromo-5oxo-1-pyrrolidin-1-yl-5H-[1,2,4]triazolo[4,3-a]quinazolin-3-yl)-phenyl-acetic acid methyl ester] | 187
CN(C)c1nn(CC=Cc2ccccc2)c2nc(=O)c3cc(Br)ccc3n12 [Compound 155, 7-Bromo-1-dimethylamino-3-(3-phenyl-allyl)-3H-[1,2,4]triazolo[4,3-a]quinazolin-5-one] | 206
Cc1ccc2c(c1)c(=O)nc1n(CC=Cc3ccccc3)nc(N3CCCCCC3)n21 [Compound 157, 1-(azepan-1-yl)-7-methyl-3-(3-phenylallyl)-3H-[1,2,4]triazolo[4,3-a]quinazolin-5-one] | 193
Cc1ccc2c(c1)c(=O)nc1n(CC=Cc3ccccc3)nc(N3CCCC3)n21 [Compound 158, 7-methyl-3-(3-phenylallyl)-1-(pyrrolidin-1-yl)-3H-[1,2,4]triazolo[4,3-a]quinazolin-5-one] | 225
O=c1nc2n(CC=Cc3ccccc3)nc(N3CCCC3)n2c2ccc(O)cc12 [Compound 161, 7-hydroxy-3-(3-phenylallyl)-1-(pyrrolidin-1-yl)-3H-[1,2,4]triazolo[4,3-a]quinazolin-5-one] | 255
CCCCN(CCCC)c1nnc2n(C)c(=O)c3cc(Cl)ccc3n12 [Compound 167, 7-chloro-1-dibutylamino-4-methyl-4H-[1,2,4]triazolo[4,3-a]-quinazolin-5-one] | 112

Structure (SMILES) | melting point [°C]
Cn1c(=O)c2cc(Cl)ccc2n2c(N3CCCCC3)nnc12 [Compound 168, 7-chloro-4-methyl-1-(piperidin-1-yl)4H-[1,2,4]triazolo[4,3-a]-quinazolin-5-one] | 192
CN1CCN(c2nnc3n(C)c(=O)c4cc(Cl)ccc4n23)CC1 [Compound 169, 7-Chloro-4-methyl-1-(4-methyl-piperazin-1-yl)-4H-[1,2,4]triazolo[4,3-a]quinazolin-5-one] | 180 to 182
Cn1c(=O)c2cc(Cl)ccc2n2c(N3CC4CCC(C)(C3)C4(C)C)nnc12 (stereo not drawn) [Compound 170, 7-Chloro-4-methyl-1-(1,8,8-trimethyl-3-aza-bicyclo[3.2.1]oct-3-yl)-4H-[1,2,4]triazolo[4,3-a]quinazolin-5-one] | 185
O=c1c2cc(Cl)ccc2n2c(N3CCCCCC3)nnc2n1Cc1ccccc1 [Compound 172, 1-(azepan-1-yl)-4-benzyl-7-chloro-4H-[1,2,4]triazolo[4,3-a]-quinazolin-5-one] | 162
O=c1c2cc(Cl)ccc2n2c(N3CCCC3)nnc2n1Cc1ccccc1 [Compound 173, 4-benzyl-7chloro-1-(pyrrolidin-1-yl)-4H-[1,2,4]triazolo[4,3-a]-quinazolin-5-one] | 163
O=c1c2cc(Cl)ccc2n2c(N3CCCCC3)nnc2n1Cc1ccccc1 [Compound 174, 4-benzyl-7-chloro-1-(piperidin-1-yl)-4H-[1,2,4]triazolo[4,3-a]-quinazolin-5-one] | 178
Cn1c(=O)c2ccc(Cl)cc2n2c(N3CCCCCC3)nnc12 [Compound 175, 1-(azepan-1-yl)-8-chloro-4-methyl-4H-[1,2,4]triazolo[4,3-a]-quinazolin-5-one] | 179
Cn1c(=O)c2cc(Br)ccc2n2c(N3CCCCCC3)nnc12 [Compound 177, 1-(azepan-1-yl)-7-bromo-4-methyl-4H-[1,2,4]triazolo[4,3-a]-quinazolin-5-one] | 174
O=c1c2cc(Br)ccc2n2c(N3CCCCC3)nnc2n1Cc1ccccc1 [Compound 178, 4-benzyl-7-bromo-1-(piperidin-1-yl)-4H-[1,2,4]triazolo[4,3-a]-quinazolin-5-one] | 183 to 185
CN(C)c1nnc2n(Cc3ccccc3)c(=O)c3cc(Br)ccc3n12 [Compound 179, 4-Benzyl-7-bromo-1-dimethylamino-4H-[1,2,4]triazolo[4,3-a]quinazolin-5-one] | 171
O=c1c2cc(Br)ccc2n2c(N3CCOCC3)nnc2n1Cc1ccccc1 [Compound 180, 4-Benzyl-7-bromo-1-morpholin-4-yl-4H-[1,2,4]triazolo[4,3-a]quinazolin-5-one] | 189
O=c1c2cc(Br)ccc2n2c(N3CCSCC3)nnc2n1Cc1ccccc1 [Compound 181, 4-Benzyl-7-bromo-1-thiomorpholin-4-yl-4H-[1,2,4]triazolo[4,3-a]quinazolin-5-one] | 235
CN1CCN(c2nnc3n(Cc4ccccc4)c(=O)c4cc(Br)ccc4n23)CC1 [Compound 182, 4-Benzyl-7-bromo-1-(4-methyl-piperazin-1-yl)-4H-[1,2,4]triazolo[4,3-a]quinazolin-5-one] | 230
O=c1c2cc(Br)ccc2n2c(N3CCN(c4ccccc4)CC3)nnc2n1Cc1ccccc1 [Compound 183, 4-Benzyl-7-bromo-1-(4-phenyl-piperazin-1-yl)-4H-[1,2,4]triazolo[4,3-a]quinazolin-5-one] | 238
O=c1c2cc(Br)ccc2n2c(N3CC=CCC3)nnc2n1Cc1ccccc1 [Compound 185, 4-Benzyl-7-bromo-1-(3,6-dihydro-2H-pyridin-1-yl)-4H-[1,2,4]triazolo[4,3-a]quinazolin-5-one] | 172
O=c1c2cc(Br)ccc2n2c(N3CC=CC3)nnc2n1Cc1ccccc1 [Compound 186, 4-Benzyl-7-bromo-1-(2,5-dihydro-pyrrol-1-yl)-4H-[1,2,4]triazolo[4,3-a]quinazolin-5-one] | 210
O=c1c2cc(Br)ccc2n2c(N3CCC(O)C3)nnc2n1Cc1ccccc1 (stereo not drawn) [Compound 187, 4-Benzyl-7-bromo-1-(3-hydroxy-pyrrolidin-1-yl)-4H-[1,2,4]triazolo[4,3-a]quinazolin-5-one] | 176
CNc1nnc2n(Cc3ccccc3)c(=O)c3cc(Br)ccc3n12 [Compound 188, 4-Benzyl-7-bromo-1-methylamino-4H-[1,2,4]triazolo[4,3-a]quinazolin-5-one] | 238
Cc1ccc2c(c1)c(=O)n(Cc1ccccc1)c1nnc(N3CCCC3)n21 [Compound 191, 4-Benzyl-7-methyl-1-pyrrolidin-1-yl-4H-[1,2,4]triazolo[4,3-a]quinazolin-5-one] | 189
